From patent US20260250318A1, “COMPOSITIONS AND METHODS FOR CROSSING THE BLOOD BRAIN BARRIER” (VOYAGER THERAPEUTICS, INC., priority 2022, published 2026)

What was measured:
Details in all cases: synthetic library passage 3, intravenous, relative to wild-type AAV9
brain [1] = experiment: NGS fold enrichment of synthetic library (passage 3) in BALB/c mice, first cross-species screen; type: in vivo
In short: (§1)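 Synthetic capsid library (passage 3) was given intravenously […] to NHPs aged 2-4 years and to BALB/c and C57Bl/6 mice (n=3 each, 6-8 weeks). After about 28 days in vivo, tissue RNA was RT-PCR amplified and NGS-sequenced; values are fold enrichment per variant relative to wild-type AAV9.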

brain [2] = experiment: NGS fold enrichment of synthetic library (passage 3) in C57Bl/6 mice, first cross-species screen; type: in vivo
In short: as §1

[3] = system: brain, spinal cord, and DRG of the NHPs; experiment: NGS fold enrichment of synthetic library (passage 3) in NHPs, first cross-species screen; type: in vivo, cynomolgus macaques (Macaca fascicularis)
In short: as §1

[4] = RNA from brain of BALB/c mice, NGS
[5] = RNA from brain of C57Bl/6 mice, NGS
[6] = RNA from spinal cord of NHPs, NGS

Sequence | Fold enrichment over AAV9 in the brain of Mice (BALB/c) (brain [1]; RNA NGS, brain of BALB/c mice) | Fold enrichment over AAV9 in the brain of Mice (C57Bl/6) (brain [2]; RNA NGS, brain of C57Bl/6 mice) | Fold enrichment over AAV9 in the brain of NHPs ([3]; RNA NGS, brain of NHPs) | Fold enrichment over AAV9 in the spinal cord of NHPs ([3]; RNA NGS, spinal cord of NHPs) | Fold enrichment over AAV9 in the brain of Mice (BALB/c) (brain [1]; [4]) | Fold enrichment over AAV9 in the brain of Mice (C57Bl/6) (brain [2]; [5]) | Fold enrichment over AAV9 in the brain of NHPs ([3]; RNA from brain of NHPs, NGS) | Fold enrichment over AAV9 in the spinal cord of NHPs [3, 6]
GSGQFTNAGMNQQT | 0.418 fold | 0.565 fold | 2.969 fold | 0.936 fold | – | – | – | –
GSGQNHGLQSGQQT | 0.779 fold | 0.938 fold | 1.530 fold | 4.960 fold | – | – | – | –
GSVGSRPVGQNQQT | 0.716 fold | 1.182 fold | 1.442 fold | 11.363 fold | – | – | – | –
GSGQNQAGHGPGQT | 0.887 fold | 1.040 fold | 1.670 fold | 2.861 fold | – | – | – | –
GSGQNQQTSTTPLP | 0.741 fold | 0.828 fold | 1.052 fold | 2.823 fold | – | – | – | –
GVKGVGHSGQNQQT | 0.783 fold | 0.994 fold | 1.096 fold | 2.485 fold | – | – | – | –
GSGERSISVQNQQT | – | – | – | – | 0.173 fold | 0.598 fold | 1.264 fold | 1.619 fold
GSGQNQRAVLNDQT | – | – | – | – | 0.259 fold | 0.556 fold | 1.242 fold | 3.023 fold
GSGQHSNQHVNQQT | – | – | – | – | 0.558 fold | 0.955 fold | 1.192 fold | 1.453 fold
GSGQNQQSALRTQT | 1.421 fold | 1.581 fold | 1.568 fold | 1.913 fold | – | – | – | –
GSDFLGTHGQNQQT | 0.750 fold | 1.038 fold | 3.171 fold | 0.348 fold | – | – | – | –
GSGQNQANWVKVQT | 0.532 fold | 0.683 fold | 1.059 fold | 0.126 fold | – | – | – | –
GGSHTYGGGQNQQT | – | – | – | – | 0.730 fold | 0.982 fold | 1.241 fold | 13.065 fold
GSGDSITGKQNQQT | 0.306 fold | 0.793 fold | 2.112 fold | 1.295 fold | – | – | – | –
GCTTRLNSGQNQQT | – | – | – | – | 0.618 fold | 0.184 fold | 1.276 fold | 0.000 fold
GSGQSVQTVVNQQT | 0.240 fold | 0.582 fold | 3.057 fold | 5.441 fold | – | – | – | –

Sequence | Fold enrichment over AAV9 in the brain of Mice (BALB/c) (brain [1]; RNA NGS, brain of BALB/c mice) | Fold enrichment over AAV9 in the brain of Mice (C57Bl/6) (brain [2]; RNA NGS, brain of C57Bl/6 mice) | Fold enrichment over AAV9 in the brain of NHPs ([3]; RNA NGS, brain of NHPs) | Fold enrichment over AAV9 in the spinal cord of NHPs ([3]; RNA NGS, spinal cord of NHPs) | Fold enrichment over AAV9 in the brain of Mice (BALB/c) (brain [1]; [4]) | Fold enrichment over AAV9 in the brain of Mice (C57Bl/6) (brain [2]; [5]) | Fold enrichment over AAV9 in the brain of NHPs ([3]; RNA from brain of NHPs, NGS) | Fold enrichment over AAV9 in the spinal cord of NHPs [3, 6]
GSGQNTGHLTMQQT | 0.595 fold | 1.026 fold | 1.114 fold | 0.078 fold | – | – | – | –
GGGPMAGSGQNQQT | 0.372 fold | 1.049 fold | 1.735 fold | 2.815 fold | – | – | – | –
GSGHSSHSVQNQQT | 0.424 fold | 0.942 fold | 3.339 fold | 3.318 fold | – | – | – | –
GSGQDRNIVQNQQT | 0.632 fold | 0.454 fold | 2.112 fold | 0.229 fold | – | – | – | –
GSLPRGTSDQNQQT | 0.495 fold | 0.453 fold | 2.362 fold | 0.000 fold | – | – | – | –
GSGQDVTKTGNQQT | – | – | – | – | 0.035 fold | 0.531 fold | 1.173 fold | 4.523 fold
GSSGHRESGQNQQT | 0.691 fold | 0.641 fold | 1.048 fold | 4.398 fold | – | – | – | –
GSGQNQQLGSRQCT | 0.407 fold | 0.987 fold | 1.102 fold | 0.183 fold | – | – | – | –
GSGEKVHSGQNQQT | – | – | – | – | 0.671 fold | 0.862 fold | 1.289 fold | 0.062 fold
GSGQNQQGTLLHQT | 1.303 fold | 1.347 fold | 1.728 fold | 2.065 fold | – | – | – | –
GSGGVTYQSQNQQT | 0.181 fold | 0.649 fold | 1.673 fold | 7.283 fold | – | – | – | –
GSGQNQQTSMSNAT | 0.745 fold | 1.605 fold | 1.501 fold | 6.766 fold | – | – | – | –
GSDQNQRLTSSMQT | 0.670 fold | 0.875 fold | 1.479 fold | 0.164 fold | – | – | – | –
GSSKELLWGQNQQT | 0.883 fold | 0.506 fold | 2.163 fold | 0.000 fold | – | – | – | –
GGVLVGGSGQNQQT | 0.688 fold | 1.527 fold | 2.778 fold | 0.178 fold | – | – | – | –
GSLKPTTLGQNQQT | 0.220 fold | 0.175 fold | 1.840 fold | 0.476 fold | – | – | – | –
